In the NIST ThermoML archive (doi:10.1021/je700265d):
“And” between values parts separate entries of the source, which are not always exact repeats. Equal values may be shown once.

Assay: mn = molality of the nth substance listed, in mol/kg
Settings: Liquid, Vibrating tube method

[Na+].[OH-] [sodium hydroxide] + O
mass density
Settings | 2000 kPa | 10000 kPa
323.15 K, m1 = 0.09892 | 993.08 kg/m3 [middle of 4 runs] | –
323.15 K, m1 = 0.1004 | – | 996.538 kg/m3 and 996.527 kg/m3
323.15 K, m1 = 0.1011 | – | 996.561 kg/m3 and 996.552 kg/m3
323.15 K, m1 = 0.1999 | 997.265 kg/m3 | –
323.15 K, m1 = 0.2008 | – | 1000.68 kg/m3 and 1000.69 kg/m3
323.15 K, m1 = 0.4993 | – | 1012.82 kg/m3
323.15 K, m1 = 0.4998 | 1009.52 kg/m3 and 1009.53 kg/m3 | –
323.15 K, m1 = 1.002 | – | 1032.59 kg/m3
323.15 K, m1 = 1.006 | 1029.58 kg/m3 and 1029.59 kg/m3 | –
323.15 K, m1 = 1.998 | – | 1069.82 kg/m3
323.15 K, m1 = 2.006 | 1067.14 kg/m3 | –
323.15 K, m1 = 2.994 | 1102.23 kg/m3 and 1102.25 kg/m3 | –
323.15 K, m1 = 2.999 | – | 1104.9 kg/m3
323.15 K, m1 = 4 | 1135.56 kg/m3 and 1135.59 kg/m3 | 1137.82 kg/m3
323.15 K, m1 = 4.927 | 1164.37 kg/m3 and 1164.36 kg/m3 | –
323.15 K, m1 = 5.002 | – | 1168.71 kg/m3
323.15 K, m1 = 5.963 | 1194.98 kg/m3 | –
323.15 K, m1 = 5.984 | – | 1197.21 kg/m3
323.15 K, m1 = 6.887 | 1219.57 kg/m3 | –
323.15 K, m1 = 6.998 | – | 1224.73 kg/m3
323.15 K, m1 = 8 | 1248.12 kg/m3 | –
323.15 K, m1 = 8.191 | – | 1254.93 kg/m3
373.15 K, m1 = 0.1071 | – | 967.434 kg/m3 and 967.432 kg/m3
373.15 K, m1 = 0.2063 | – | 971.522 kg/m3
373.15 K, m1 = 0.5006 | – | 983.362 kg/m3
373.15 K, m1 = 1.007 | – | 1003.1 kg/m3
373.15 K, m1 = 1.998 | – | 1039.6 kg/m3
373.15 K, m1 = 3 | – | 1074.35 kg/m3
373.15 K, m1 = 3.968 | – | 1105.88 kg/m3
373.15 K, m1 = 4.987 | – | 1137.02 kg/m3
373.15 K, m1 = 5.995 | – | 1165.76 kg/m3
373.15 K, m1 = 7 | – | 1192.66 kg/m3 and 1192.78 kg/m3
373.15 K, m1 = 8.191 | – | 1222.53 kg/m3
423.15 K, m1 = 0.102 | – | 926.887 kg/m3 and 926.893 kg/m3
423.15 K, m1 = 0.2019 | – | 931.217 kg/m3
423.15 K, m1 = 0.4993 | – | 943.749 kg/m3
423.15 K, m1 = 1.004 | – | 964.154 kg/m3
423.15 K, m1 = 2.002 | – | 1002.15 kg/m3
423.15 K, m1 = 3.005 | – | 1037.71 kg/m3
423.15 K, m1 = 4.007 | – | 1070.87 kg/m3
423.15 K, m1 = 5.013 | – | 1101.94 kg/m3 and 1102 kg/m3
423.15 K, m1 = 5.983 | – | 1129.99 kg/m3
423.15 K, m1 = 6.994 | – | 1157.33 kg/m3
423.15 K, m1 = 7.997 | – | 1182.78 kg/m3
473.15 K, m1 = 0.1008 | – | 875.988 kg/m3 and 876.005 kg/m3 and 876.003 kg/m3
473.15 K, m1 = 0.1998 | – | 880.725 kg/m3
473.15 K, m1 = 0.498 | – | 894.456 kg/m3 and 894.426 kg/m3
473.15 K, m1 = 1 | – | 916.262 kg/m3
473.15 K, m1 = 1.996 | – | 956.424 kg/m3 and 956.451 kg/m3
473.15 K, m1 = 3.001 | – | 993.727 kg/m3
473.15 K, m1 = 3.979 | – | 1027.36 kg/m3
473.15 K, m1 = 4.99 | – | 1059.7 kg/m3
473.15 K, m1 = 5.981 | – | 1089.06 kg/m3
473.15 K, m1 = 6.966 | – | 1116.25 kg/m3 and 1116.27 kg/m3
473.15 K, m1 = 7.982 | – | 1142.4 kg/m3
523.15 K, m1 = 0.1 | – | 811.722 kg/m3 and 811.711 kg/m3
523.15 K, m1 = 0.2004 | – | 817.364 kg/m3
523.15 K, m1 = 0.4995 | – | 833.124 kg/m3 and 833.104 kg/m3
523.15 K, m1 = 1.002 | – | 857.633 kg/m3 and 857.68 kg/m3
523.15 K, m1 = 2.005 | – | 902.001 kg/m3
523.15 K, m1 = 3.005 | – | 942.171 kg/m3
523.15 K, m1 = 3.999 | – | 977.951 kg/m3
523.15 K, m1 = 5.003 | – | 1011.55 kg/m3
523.15 K, m1 = 6.005 | – | 1042.56 kg/m3 and 1042.64 kg/m3
523.15 K, m1 = 7.002 | – | 1071.15 kg/m3 and 1071.04 kg/m3
523.15 K, m1 = 7.999 | – | 1097.71 kg/m3 and 1097.55 kg/m3
573.15 K, m1 = 0.1122 | – | 724.654 kg/m3 and 724.632 kg/m3
573.15 K, m1 = 0.2173 | – | 732.398 kg/m3 and 732.406 kg/m3
573.15 K, m1 = 0.5495 | – | 754.575 kg/m3 and 754.588 kg/m3
573.15 K, m1 = 1.105 | – | 787.201 kg/m3 and 787.19 kg/m3
573.15 K, m1 = 1.996 | – | 832.976 kg/m3 and 833.161 kg/m3
573.15 K, m1 = 3.004 | – | 878.767 kg/m3
573.15 K, m1 = 3.998 | – | 918.89 kg/m3
573.15 K, m1 = 4.999 | – | 955.585 kg/m3
573.15 K, m1 = 6.004 | – | 989.12 kg/m3
573.15 K, m1 = 6.999 | – | 1019.78 kg/m3
573.15 K, m1 = 7.997 | – | 1047.99 kg/m3
